In data set [1] the test system is human non-small cell lung cancer cells NCI-H358 with KRas G12C mutation. Nature of the data set: NCI-H358 cell proliferation, CellTiter-Glo Luminescent Cell Viability Assay. In kind it is cell-based. Conditions: for inhibition at 1 µM: 1 μM compound, read-out: Inhibition rate % (1 μM). The text has this: This assay verified the inhibitory activity of the compounds of the present disclosure on the proliferation of human non-small cell lung cancer cells NCI-H358 with KRas G12C mutation by using Promega's CellTiter-Glo® Luminescent Cell Viability Assay kit.
[Test materials]: NCI-H358 cell line (Cell Resource Center, IBMS, CAMS/PUMC, Item number: 3111C0001CCC000470), 96-well transparent flat-bottomed black-walled cell culture plate (Greiner Bio one, Cat #655096), RPMI-1640 Medium (GE, Cat #SH30809.01), Fetal Bovine Serum FBS (Thermo Fisher, Cat #10099-141), CellTiter-Glo® Luminescent Cell Viability Assay Kit (Promega, Cat #G7573), PBS (Solarbio, Cat #P1020), Trypsin (Thermo Fisher, Cat #25200072), DMSO (Sigma, Cat #D2650), Methyl cellulose (SIGMA, Cat #9004-67-5).
[Experimental procedure]: 180 μL of cell suspension (RPMI1640 solution with 10% FBS and 1% methyl cellulose) was charged to a 96-well cell culture plate at a density of 1500 cells/well. A control group containing no cells, no compounds and only 3D complete medium (RPMI 1640 solution with 1! Methyl cellulose and 10% FBS) (i.e. culture medium control) and a control group containing no compounds but cells (i.e. cell control) were set. AMG510 or the following reference compounds were used as positive controls. The cell plate was placed in a cell incubator overnight. A 10-fold drug solution (RPMI1640 solution with 10% FBS and 1% DMSO) was prepared at a concentration of 10 μM, and 20 μL of this solution was added to each well of the 96-well plate seeded with cells, so that the final concentration of the compounds in each well was 1 μM, and the DMSO concentration […] replicate wells were set up for each compound. The solutions of AMG510 or the following reference compounds were prepared in the same way and added to the positive control wells. The cell plate was placed in a cell incubator and cultured for 120 h. For endpoint detection, the CellTiter-Glo reagent was melted, and the cell plate was moved to room temperature to equilibrate for 30 minutes, added with 100 µL of CellTiter-Glo to each well, and shaken on an orbital shaker for 5 minutes to fully lyse the cells. The plate was kept at room temperature for 20 minutes to stabilize the luminescence signal, and the luminescence value of each well was full wavelength scanned with a multi-functional microplate reader (Molecular Devices, Spectramax M3 microplate reader).
[Test samples] The compounds of Examples 1-39, and reference compound A
[Data Analysis] The following formula was used to calculate the cell inhibition rate under the action of each concentration of the compounds:
Inhibition rate %=[1−(LumDrug to be tested−LumCulture medium control)/(LumCell control−LUMCulture medium control)]×100%
IC50 values were calculated using GraphPad Prism 7.0 software, nonlinear Sigmoidal regression was used to fit the data to obtain a dose-response curve.
A general note: ATP-based viability assays read luminescence as a measure of living cells.

Data set [2] has as its system human non-small cell lung cancer NCI-H358 xenograft. Nature of the data set: Antitumor activity in NCI-H358 xenograft mouse model. It counts as in vivo, NPSG mice. Conditions: NPSG mice, gavage once daily 10 mg/kg, day 14. How it is done:
Tumor growth inhibitory activity of the compounds of the present disclosure was evaluated and verified in a human non-small cell lung cancer NCI-H358 xenograft mouse model.
[Test materials]: NCI-H358 cell line carrying KRAS G12C mutation, provided by KYinno Biotechnology Co., Ltd. (from ATCC, Cat #CRL-5807). NPSG mice, female, provided by Beijing Phenotek Biotechnologies Inc.
[Experimental procedure]: 5×10^6 NCI-H358 cells (containing 50% Matrigel) were inoculated subcutaneously on the right flank of 6-8 weeks old female NPSG mice, with the inoculation volume of 0.1 mL. When the average tumor size reached 160-220 mm^3, the mice were grouped randomly according to tumor size and body weight, upon which the mice were treated with compounds on the same day designated as Day 0. The mice were gavage administrated once daily at 10 mg/kg or solvent control (50 mM citrate buffer containing 10% cyclodextrin, pH5.0). Tumor volume and body weight were measured twice a week during the study. The tumor volume was calculated by the formula V=D×d×d/2, wherein D and d refer to the long and short diameter of the tumor respectively.
In addition, using the same materials and procedures as above, the tumor inhibition activity of Example 9 at different doses in the above-mentioned non-small cell lung cancer mouse model and its effect on body weight were also investigated.

The nature of data set [3]: Cassette pharmacokinetic experiment in rats (IV). It counts as in vivo. Conditions: rat, plasma, 1 mg/kg, male SD rats, tail vein IV, 1 mg/mL each compound at 1 mL/kg. The text has this:
2.1 Pharmacokinetic Properties of Some Compounds of the Present Disclosure Evaluated by Cassette Pharmacokinetic Experiments in Rats.
[Test materials]: Male SD rats, age: 6-8 weeks, body weight 220-250 g, purchased from Zhaoyan (Suzhou) New Drug Research Center Co., Ltd.; Tolbutamide (Aladdin, Cat #H1401054); Sulfobutyl-(Captisol, Shandong Binzhou Zhiyuan Biological Technology Co., Ltd, Cat #20191013); Propylene glycol (15)-stearate (Solutol, Meilun Bio, Cat #50206A); DMSO (Vetec Company, Cat #WXBD0293V); acetonitrile (Sigma-Aldrich, Cat #WXBD1744V); Methanol (Sigma-Aldrich, Cat #WXBD2831V).
[Experimental procedure]: The compound combination was prepared in a solvent of 5% DMSO/10% Solutol/85% (20% Captisol), and the final concentration of each compound was 1 mg/mL. The SD rats were treated with the compound preparation in 1 mL/kg by tail vein IV injection, and blood samples were collected at the time points of 5 min, 15 min, 30 min, 1 h, 2 h, 4 h, 8 h, and 24 h via external jugular vein puncture, centrifuged at low temperature for 20 minutes to collect plasma samples, which were stored at −80° C. until analysis.
[Sample analysis]: Establishing LC-MS/MS compound analysis method
Standard curve preparation: 20 μL of lmg/mL DMSO stock solution for each compound was aspirated and transferred to […] of 50% methanol working solution, and the resulting solution was serially diluted to obtain a standard curve working solution with concentrations of 20000, 10000, 5000, 1000, 500, 100, 50, 20 and […]. Then 5 µL of this standard curve working solution was mixed with 45 μL rat blank plasma to give a standard curve with concentrations of 2000, 1000, 500, 100, 50, 10, 2 and 1 ng/mL for quantification of unknown samples.
Sample pretreatment: 50 μL of unknown plasma sample or standard curve sample was mixed with 250 μL of acetonitrile containing internal standard as a precipitant. The plasma protein was precipitated, extracted for test compounds, and centrifuged at low temperature for 20 minutes. The supernatant was taken, mixed with 0.1% formic acid aqueous solution, and 5 μL of the resulting solution was aspirated for blood concentration analysis.
[Data processing]: A standard curve was plotted using mass spectrometry software, to quantify unknown samples, and pharmacokinetic parameters are calculated by Winnonlin 8.2 using the drug concentration of unknown samples at each time point.

Read-outs that look alike come from different tables or passages of the source. A value given as a limit tells only on which side of the number the result lay.

Take `C=CC(=O)N1CCN(c2c(C#N)c(O[C@@H]3CN(C)C[C@H]3OC)nc3c(F)c(-c4ccc(F)c5sc(N)nc45)c(Cl)cc23)CC1` [Example 2, 4-(4-Acryloylpiperazin-1-yl)-7-(2-amino-7-fluorobenzo[d]thiazol-4-yl)-6-chloro-8-fluoro-2-(((3R,4R)-4-methoxy-1-methylpyrrolidin-3-yl)oxy)quinoline-3-carbonitrile]: in data set [1] (120 h), the inhibition (commonly the relative decrease from the control value, in per cent) at 1 µM is 97.6%. In addition, the concentration for half-maximal inhibition (IC50) (as a rule, the midpoint of a concentration-inhibition curve) in data set [1] (120 h, read-out: IC50) is 3 nM. In data set [1] (read-out: IC50 value), the concentration for half-maximal inhibition (IC50) was under 20 nM. In addition, in data set [2], the “TGI(%)” value is given as 69% and the “Tumor volume (mm^3) (day 14)” value was found to be 497.3 mm^3.
Regarding `C=CC(=O)N1CCN(c2c(C#N)c(OC)nc3c(F)c(-c4ccc(F)c5sc(N)nc45)c(Cl)cc23)CC1` [Example 13, 4-(4-Acryloylpiperazin-1-yl)-7-(2-amino-7-fluorobenzo[d]thiazol-4-yl)-6-chloro-8-fluoro-2-methoxyquinoline-3-carbonitrile], in data set [3], the AUC(0-t) (usually exposure summed from dosing to a finite time, without extrapolation to infinity) came to 1950 ng·h/mL; the clearance (commonly a measure of how efficiently the substance is removed, as volume per time) is 8.58 mL/min/kg; the half-life – broadly, the time needed for the level to fall by half in the phase considered – was 1.37 h.
For the molecule `C=CC(=O)N1CCN(c2c(C#N)c(-c3cccc4c3CCN(C)C4)nc3c(F)c(-c4ccc(F)c5sc(N)nc45)c(Cl)cc23)CC1` [Example 10, 4-(4-Acryloylpiperazin-1-yl)-7-(2-amino-7-fluorobenzo[d]thiazol-4-yl)-6-chloro-8-fluoro-2-(2-methyl-1,2,3,4-tetrahydroisoquinolin-5-yl)quinoline-3-carbonitrile], in data set [1] (120 h), the inhibition at 1 µM turned out to be 96.1%. The half-maximal inhibitory concentration (IC50) in data set [1] (120 h, read-out: IC50) is 18 nM. The IC50 in data set [1] (read-out: IC50 value) is under 20 nM. Further, in data set [3], the area under the curve AUC(0-t) worked out at 592 ng·h/mL, the clearance came out at 27.4 mL/min/kg and the half-life is 2.66 h.
For `C=CC(=O)N1CCN(c2c(C#N)c(O[C@@H]3CN(C)C[C@H]3OC)nc3c(F)c(-c4ccc(F)c5sc(N)nc45)c(Cl)cc23)C[C@H]1C` [Example 1, 4-((R)-4-acryloyl-3-methylpiperazin-1-yl)-7-(2-amino-7-fluorobenzo[d]thiazol-4-yl)-6-chloro-8-fluoro-2-(((3R,4R)-4-methoxy-1-methylpyrrolidin-3-yl)oxy)quinoline-3-carbonitrile], the inhibition at 1 µM in data set [1] (120 h) worked out at 94.7%. In addition, the IC50 in data set [1] (120 h, read-out: IC50) worked out at 15 nM. Moreover, the half-inhibitory concentration (IC50) in data set [1] (read-out: IC50 value) is under 20 nM. For the same molecule, in data set [3], the area under the curve AUC(0-t) is 657 ng·h/mL, the clearance worked out at 20.9 mL/min/kg and the half-life was 2.87 h. Besides, in data set [2], the “TGI(%)” value is on record as 71% and the “Tumor volume (mm^3) (day 14)” value stood at 478.4 mm^3.

The values above are taken from patent US20230406849A1, “KRAS INHIBITORS FOR TREATMENT OF CANCERS” (TYLIGAND BIOSCIENCE (SHANGHAI) LIMITED, priority 2020, published 2023).
